Laboratory results reported in the supplement of paper PMC7021759.
± gives the standard deviation of the averaged measurements.

Test system: SK-N-MM (SKNMM-MYCN, doxycycline-inducible MYCN)
Test: area under dose-response curve (CellTiter-Glo viability normalised to plate controls) (AUC (arbitrary units)); higher = more loss of viability; extreme values may be limits of the assay
In short: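 For each compound, area under the dose-response curve was calculated from log2 CellTiter-Glo luminescence normalised to the positive and negative controls on each plate. The cells were SK-N-MM with doxycycline-inducible MYCN, plated at 1250 cells/100 μL in 96-well plates and moved to medium with or without doxycycline about 24 h later. Two days after that, 10-point 1:3 dilution series were pin-transferred (890-fold stock dilution), with re-dosing on day 4 and readout 3 or 8 days after drugging.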

[1] = MYCN induction (doxycycline): +doxycycline (MYCN induced), time after drugging: 3 days
[2] = MYCN induction (doxycycline): +doxycycline (MYCN induced), time after drugging: 8 days
[3] = MYCN induction (doxycycline): no doxycycline (MYCN not induced), time after drugging: 3 days
[4] = MYCN induction (doxycycline): no doxycycline (MYCN not induced), time after drugging: 8 days

Structure (SMILES)	area under dose-response curve [1]	area under dose-response curve [2]	area under dose-response curve [3]	area under dose-response curve [4]
CC[C@]1(O)C[C@@H]2CN(CCc3c([nH]c4ccccc34)[C@@](C(=O)OC)(c3cc4c(cc3OC)N(C)[C@H]3[C@@](O)(C(=O)OC)[C@H](OC(C)=O)[C@]5(CC)C=CCN6CC[C@]43[C@@H]65)C2)C1 [VINBLASTINE]	190	284	98.1	177
CCCS(=O)(=O)Nc1ccc(F)c(C(=O)c2c[nH]c3ncc(-c4ccc(Cl)cc4)cc23)c1F [VEMURAFENIB]	18.3	24.6	15.8	0
CC(=O)c1c(C)c2cnc(Nc3ccc(N4CCNCC4)cn3)nc2n(C2CCCC2)c1=O [PALBOCICLIB]	0	78.6	0	65.5
CS(=O)(=O)c1ccc(-c2cnc(N)c(C(=O)Nc3ccccc3)n2)cc1 [VE-821]	41.9	75.9	8.07	32
CO[C@H]1C(=O)[C@]2(C)[C@@H](OC)C[C@H]3OC[C@@]3(OC(C)=O)[C@H]2[C@H](OC(=O)c2ccccc2)[C@]2(O)C[C@H](OC(=O)[C@H](O)[C@@H](NC(=O)OC(C)(C)C)c3ccccc3)C(C)=C1C2(C)C [CABAZITAXEL]	195	350	140	225
CNC(=O)c1ccccc1Sc1ccc2c(/C=C/c3ccccn3)n[nH]c2c1 [AXITINIB]	52.9	109	32.4	69.7
Cn1cc(-c2cnn3c(N)c(Br)c([C@@H]4CCCNC4)nc23)cn1	67.2	122	31.4	74.9
CS(=O)(=O)c1ccc(C(=O)Nc2ccc(Cl)c(-c3ccccn3)c2)c(Cl)c1 [VISMODEGIB]	0	0	0	0
C=C(c1ccc(C(=O)O)cc1)c1cc2c(cc1C)C(C)(C)CCC2(C)C [BEXAROTENE]	4.22 ± 5.2		11.9	0
C[C@H]1[C@@H](O)O[C@@H]2O[C@@]3(C)CC[C@H]4[C@H](C)CC[C@@H]1[C@@]24OO3 [DIHYDROARTEMISININ]	62.1	116	37	73.1
COc1cc2nccc(Oc3ccc(NC(=O)C4(C(=O)Nc5ccc(F)cc5)CC4)cc3)c2cc1OC [CABOZANTINIB]	0	0	0	0
CC(C)NC[C@@H](C(=O)N1CCN(c2ncnc3c2[C@H](C)C[C@H]3O)CC1)c1ccc(Cl)cc1 [IPATASERTIB]	0	0	10.4	0.0606
COc1cc([C@@H]2c3cc4c(cc3[C@@H](O[C@@H]3O[C@@H]5CO[C@@H](C)O[C@H]5[C@H](O)[C@H]3O)[C@H]3COC(=O)[C@H]23)OCO4)cc(OC)c1O [ETOPOSIDE]	42.1	114	18.8	43.1
COc1cccc2c1C(=O)c1c(O)c3c(c(O)c1C2=O)C[C@@](O)(C(=O)CO)C[C@@H]3O[C@H]1C[C@H](N)[C@H](O)[C@H](C)O1 [DOXORUBICIN]	135	295	104	224
CC(=O)OC[C@H]1O[C@@H]([S-])[C@H](OC(C)=O)[C@@H](OC(C)=O)[C@@H]1OC(C)=O.CCP(CC)CC.[Au+] [AURANOFIN]	199	223	188	208
CC1CS(=O)(=O)CCN1/N=C/c1ccc([N+](=O)[O-])o1 (centres undefined) [NIFURTIMOX]	3.58	0	0	0.144
Cn1nnc2c(C(N)=O)ncn2c1=O [TEMOZOLOMIDE]	0	0	0	
O=c1cc(-c2cccc3c2Sc2ccccc2S3)oc(N2CCOCC2)c1			16.3	
N#CN=C(NCCCCCCOc1ccc(Cl)cc1)Nc1ccncc1 [GMX-1778]	172	348	119	338
COC(=O)N[C@@H](C)CNc1nccc(-c2cn(C(C)C)nc2-c2cc(Cl)cc(NS(C)(=O)=O)c2F)n1 [LGX-818]	12.9	2.41	11	68.6
CCOC(=O)CCNc1cc(N2CCc3ccccc3CC2)nc(-c2ccccn2)n1 [GSK-J4]	0.00103	188	61.4	150
